Test results: PMC9963121, “Development of Combretastatin A-4 Analogues as Potential Anticancer Agents with Improved Aqueous Solubility” (Molecules, 2023)

Key:
AGS gastric cancer cell = assay: MTT cell growth inhibition assay, AGS gastric cancer cells; assay type: cell-based; settings: Homo sapiens, mean ± SD of three experiments
From the text: (§1) Initially, we designed and synthesised seven compounds—9a and 12a1–12a6—and evaluated the anticancer activity and aqueous solubility. We evaluated the cytotoxic effects of these stilbene nitrile analogues against a panel of four human cancer cell lines (HCT-116, BEL-7402, MCF-7 and AGS) and two human non-cancerous normal cell lines (L-02 and MCF-10A), using CA-4 as a control. The compounds were screened for aqueous solubility in 0.01 M PBS using a high throughput UV method. […] It is possible that the size of the nitrogen heterocycle had little effect on the activity of these compounds. […] The aqueous solubility of all the compounds 12a1–12a6 was higher than that of 9a, particularly that of 12a1 and 12a2 containing piperazine rings. […] Of the six compounds with improved aqueous solubility, 12a1 had the best activity.
(§2) All human cell lines were used in this study. AGS gastric cancer cell, BEL-7402 liver cancer cell, HCT-116 colorectal cancer cell, L-02 normal liver cell, MCF-7 breast cancer cell, and MCF-10A normal breast cell were initially purchased from American Type Culture Collection (ATCC, Manassas, VA, USA). RPMI-1640 media, DMEM and FBS, were provided by Gibco Company. The cells were maintained in DMEM or RPMI-1640, supplemented with 10% FBS, 100 IU/mL penicillin and […] streptomycin, and at 37 °C in a humidified atmosphere containing 5% CO2.
(§3) The experiment was carried out according to the method of reference.

[1] = system: MCF-10A normal breast cell; assay: MTT cell growth inhibition assay, MCF-10A normal breast cells; assay type: cell-based; settings: Homo sapiens, mean ± SD of three experiments, read-out: IC50 MCF-10A Normal Breast Epithelial Cells
From the text: as §1, §2, §3

[2] = Drug-plasma protein binding rate, equilibrium dialysis; assay type: in vitro ADME; settings: rat, equilibrium dialysis vs phosphate buffer pH 7.4, 4 °C
Protocol: Compounds at 90 μM concentration were mixed with rat plasma, and the mixtures were subjected to equilibrium dialysis versus phosphate buffer (pH 7.4) at 4 °C for 48 h. The dialysis membrane of molecular weight cut off 1 kDa was used. Dialysis experiments were done in triplicate. On completion of the dialysis period, absorb a certain amount of buffer and plasma, respectively, and add methanol to treat the sample. Dialysis samples were analysed by HPLC. The plasma protein binding rate of the compound was calculated as follows: protein binding rate/% = (plasma drug concentration inside dialysis bag—dialysate drug concentration outside dialysis bag)/plasma drug concentration inside dialysis bag × 100%. […]
injection volume was 3 μL. The column temperature was set at 40℃.
1.7. The drug-plasma protein binding rate assessment
Compound 12a1 at 90 μM concentration were mixed with rats plasma. The mixtures were subjected to equilibrium dialysis versus phosphate buffer pH 7.4 buffer at 4℃ for 48 hour using equilibrium dialysis. The dialysis membrane of molecular weight cutoff 1 kDa was used. […] Dialysis samples were analyzed by HPLC, The plasma protein binding rate of the compound was calculated as follows: protein binding rate ∕ % = (plasma drug concentration inside dialysis bag − dialysate drug concentration outside dialysis bag) ∕ plasma drug concentration inside dialysis bag × […]

[3] = system: BEL-7402 liver cancer cell; assay: MTT cell growth inhibition assay, BEL-7402 liver cancer cells; assay type: cell-based; settings: Homo sapiens, mean ± SD of three experiments, read-out: IC50 BEL-7402 Hepatoma Cells
From the text: as §1, §2, §3

[4] = Aqueous solubility in 0.01 M PBS, high throughput UV method; assay type: physicochemical; settings: aqueous phosphate buffer, aqueous buffer; sodium phosphate buffer 0.01 M, pH 7.4, 22 ± 2 °C; mean ± SD
From the text: as §1
The aqueous solubility was determined as a previously reported procedure. Put simply, a certain amount of powdered compound was placed in a 2 mL centrifuge tube and mixed with an appropriate volume of aqueous phosphate buffer (10 mM, pH 7.4) to make the whole system supersaturated. The mixtures were sonicated (KQ5200DE numerical control ultrasonic cleaner, Kunshan Ultrasonic Instrument Co., Ltd., SuZhou, China) for 20 min. After sonication, the mixture was allowed to equilibrate at RT (22 ± 2 °C) for 1.5 h with vortex shaking (1200 rpm). Then centrifuged at 3000 rpm for 15 min (1-14k, sigma, Darmstadt, Germany), the supernatant was filtered with a 0.22 µM filter membrane. And then, take 150 µL of filtrate and add it to 96-well UV plate with triplicate. Draw 150 μL of blank solution was added into plate as blank control. The 96-well UV plate prepared above was read on a Synergy HTX Multifunctional Microplate Reader (BioTek, Vermont, USA) at 294 nm. The absorbance of the sample was corrected according to the UV response of the sample and blank solution, and the corrected UV response values were used for solubility calculations by bringing into the standard curve of the compound. […]
1.5. Solubility Assessment
The aqueous solubility was determined as previously reported using the high throughput solubility screens procedure published by Bruno Bard et al [9. 10]. Put simply, a certain amount of powdered compound was placed in a 2 ml centrifuge tube and mixed with an appropriate volume of aqueous phosphate buffer (0.01 M, pH 7.4) to make the whole system supersaturated. The mixtures were sonicated (KQ5200DE numerical control ultrasonic cleaner, Kunshan Ultrasonic Instrument Co., Ltd., China) for 20 min. After sonication, the mixture was allowed to equilibrate at room temperature (22 ± 2°C) for 1.5 h with vortex shaking (1200 rpm). Then the centrifuge tube was put into the centrifuge (1-14k, sigma, Germany), centrifuged with 3000 rpm for 15 minutes, 0.22 µM filter membrane filtration supernatant, then take 150 µl filtrate and add it to 96-well UV plate, with three well for each compound. Draw 150 μL blank solution were added into 96 well-plate as blank control. The 96-well UV […]
plate prepared above was read on a SynergyHTX Multifunctional microplate reader (BioTek, USA) at 338 nm (compounds 12a-12d and 15-20) or 370 nm (compounds 9a-d). The absorbance of the sample was corrected according to the UV response of the sample and blank solution, and the corrected UV responses value were used for solubility calculations by bring into the standard curve of the compound. […]

L-02 normal liver cell = assay: MTT cell growth inhibition assay, L-02 normal liver cells; assay type: cell-based; settings: Homo sapiens, mean ± SD of three experiments
From the text: as §1, §2, §3

[5] = system: HCT-116 colorectal cancer cell; assay: MTT cell growth inhibition assay, HCT-116 colorectal cancer cells; assay type: cell-based, human; settings: Homo sapiens, HCT-116; MTT; mean ± SD of three experiments
From the text: as §1, §2, §3

MCF-7 breast cancer cell = assay: MTT cell growth inhibition assay, MCF-7 breast cancer cells; assay type: cell-based; settings: Homo sapiens, MCF7, mean ± SD of three experiments
From the text: as §1, §2, §3

- IC50 (AGS gastric cancer cell): 10.7 ± 0.52 µM
- fraction unbound at 48 h, 90 μM [2]: 0.393
- IC50 [3]: 6.36 ± 0.61 µM
- solubility thermodynamic at 1.5 h [4]: 18.2 ± 0.619 mg/mL
- IC50 [5]: 2.44 ± 0.29 µM
- IC50 (MCF-7 breast cancer cell): 16.1 ± 2.7 µM
Compound: COc1cc(/C(C#N)=C/c2ccc(NC(=O)CN3CCN(C)CC3)cc2)cc(OC)c1OC [12a1]
- IC50 [1]: 20.9 ± 0.78 µM
- IC50 (L-02 normal liver cell): 32.7 ± 1.44 µM
